Where two headings read alike, the source gives them in different places. Starred links: 1 amine or outer side, 2 acyl side, 3 side chain; linkers in the order of their positions; H or OH if unused. Positions of bridges follow the written chain, without caps; N, C: chain ends. Non-standard residues stand in square brackets, D forms with d. Residues, ends and D or L forms follow the SMILES beside them. *: point of attachment. Leu(3R-OH,Nα-propionyl) = CCC(=O)N[C@H](C(=O)*)[C@H](O)C(C)C; X1 = CC(C)[C@@H](O[*:3])[C@H](N[*:1])C(=O)[*:2]; X5 = CSC[C@@H](O[*:3])[C@H](N[*:1])C(=O)[*:2]; X4 = CCC(=O)N[C@H](C(=O)*)[C@H](O)CSC; NMeT = CN[C@H](C(=O)O)[C@@H](C)O; dPhLac = O=C(O)[C@H](O)Cc1ccccc1; NMeA = CN[C@@H](C)C(=O)O; NMeDha = C=C(NC)C(=O)O; Propionyl = CCC(=O)*
Columns and labels:
[1] = test system: 92.1 uveal melanoma cell line (heterozygous GNAQ Q209L); assay: Cell proliferation assay (resazurin cell viability), 92.1 cell line; format: cell-based
Description: (§1) Cell Proliferation Assays with Chromodepsins (compounds (A1) and 2-15): Cell line descriptions: 92.1—uveal melanoma cell line, derived from primary tumor, harboring heterozygous GNAQ Q209L mutation. Purchased from Sigma Aldrich. MP41 (CRL-3297) -uveal melanoma cell line, derived from primary tumor, harboring heterozygous GNA11 Q209L mutation. Purchased from ATCC. A375—skin melanoma cell line, harboring homozygous BRAF V600E mutation. Origin: Cancer Cell Line Encyclopedia (CCLE). SK-MEL-30—skin melanoma cell line, harboring heterozygous NRAS Q61K mutation. Origin: CCLE.
(§2) Cells were cultured in 96-well plates in a total volume of 100 μL at 37° C., 5% CO2 and 95% relative humidity. All cell lines were cultured in RPMI Medium (RPMI 1640 w/o L-glutamine, Bioconcept ref. 1-41F01-I) except A375, DMEM medium (DMEM high glucose (4.5 g/L), Bioconcept, ref. 1-26F01-I), and supplemented with 10% FCS (Bioconcept, ref. 2-01F30-I). Two to three thousand cells were seeded in 96-well plates per well the night before they were treated with compounds (concentration range: from 260 nM to 0.036 nM with ⅓ dilution steps; for 7 the concentration range was increased from 10000 nM to 1.52 nM with ⅓ dilution steps). Cell viability was measured by addition of 10 ul of resazurin per well after 96 hours of treatment. Results were analyzed and plotted using GraphPad Prism 9.0.1.

[2] = test system: MP41 uveal melanoma cell line (heterozygous GNA11 Q209L); assay: Cell proliferation assay (resazurin cell viability), MP41 cell line; format: cell-based
Description: as §1, §2

[3] = test system: A375 skin melanoma cell line (homozygous BRAF V600E); assay: Cell proliferation assay (resazurin cell viability), A375 cell line; format: cell-based
Description: as §1, §2

[4] = test system: SK-MEL-30 skin melanoma cell line (heterozygous NRAS Q61K); assay: Cell proliferation assay (resazurin cell viability), SK-MEL-30 cell line; format: cell-based
Description: as §1, §2

[5] = test system: 92.1 and MP41 cell lines (GNAQ/GNA11 mutant uveal melanoma); assay: Cell proliferation assays, potency ranking over both uveal melanoma lines; format: cell-based; conditions: 92.1 and MP41 cell lines
Description: The selective antiproliferative profile of the chromodepsins against GNAQ/GNA11 mutant cell lines is confirmed by the lack of activity against the A375 and SK MEL 30 cell lines that are independent from GNAQ/GNA11 signaling. The potency ranking using the 92.1 and MP41 cell lines is in good agreement with the previously SAR studies. […] These findings are in line with a recent report from Voss et al., highlighting the importance of the “lipophilic anchors” of compound (A1) at the residues varied in compounds 2 and 3, in context of binding kinetics and prolonged residence time on the target proteins. The retained potency of compound 4 indicates a promising exit vector for potential synthetic or biosynthetic modifications of the scaffold. […] The linearized depsipeptides compounds 5-7 lack any antiproliferative activity. In this experimental setup, the cellular permeability of the compounds was a crucial factor contributing to the observed antiproliferative potency. Therefore, all compounds were characterized in a low efflux MCDK assay and determined their exposed polar surface areas (EPSA) in order to assess their passive cellular permeabilities. All macrocyclic chromodepsins that feature the N acyl Hle side chain show similar results concerning their % fraction absorbed (% FA; average ˜60% FA+20%) and EPSA values.
as §1, §2

MDCK-LE monolayers = assay: Cell-based transwell assay with MDCK-low efflux monolayers (passive permeability); format: in vitro ADME; conditions: MDCK-LE monolayers
Description: Cell-based transwell assays with MDCK-low efflux monolayers: Compounds (A1) and 2-15 were tested in MDCK cell sub-clones with low effluxt ransporter activity (MDCK-LE) in order to determine their passive permeability. The incubations were performed at a contract research organization as described previously.

[6] = EPSA determination by supercritical fluid chromatography; format: physicochemical; conditions: modified EPSA method, SFC
Description: […] by supercritical fluid chromatography: Compounds (A1) and 2-15 were tested by supercritical fluid chromatography (SFC) to determine their ESAPSA values. Samples were analyzed using a Chirex 3014 column ([…], 3×100 mm column, 100 Å pore size; Phenomenex. The starting conditions were 5% methanol containing 20 mM ammonium formate and 95% scCO2. The gradient was increased linearly to 60% methanol containing 20 mM ammonium formate in 4.5 min.

[7] = 92.1 (GNAQ Q209L), 96 hours of treatment, read-out: GI50 by cell line, 92.1
[8] = 92.1 cell line, average of Rep. 1 and 2, read-out: GI50 92.1 Average
[9] = 92.1 cell line, replicate 1, read-out: GI50 92.1 Rep. 1
[10] = 92.1 cell line, replicate 2, read-out: GI50 92.1 Rep. 2
[11] = MP41 (GNA11 Q209L), 96 hours of treatment, read-out: GI50 by cell line, MP41
[12] = MP41 cell line, average of Rep. 1 and 2, read-out: GI50 MP41 Average
[13] = MP41 cell line, replicate 1, read-out: GI50 MP41 Rep. 1
[14] = MP41 cell line, replicate 2, read-out: GI50 MP41 Rep. 2
[15] = A375 (GNAQ/11 wild type), 96 hours of treatment, read-out: GI50 by cell line, A375
[16] = A375 cell line, average of Rep. 1 and 2, read-out: GI50 A375 Average
[17] = A375 cell line, replicate 1, read-out: GI50 A375 Rep. 1
[18] = A375 cell line, replicate 2, read-out: GI50 A375 Rep. 2
[19] = SK-MEL-30 (GNAQ/11 wild type), 96 hours of treatment, read-out: GI50 by cell line, SK-MEL-30
[20] = SK-MEL-30 cell line, average of Rep. 1 and 2, read-out: GI50 SK-MEL-30 Average
[21] = SK-MEL-30 cell line, replicate 1, read-out: GI50 SK-MEL-30 Rep. 1
[22] = SK-MEL-30 cell line, replicate 2, read-out: GI50 SK-MEL-30 Rep. 2

SMILES	GI50 [1, 7] [nM]	GI50 [1, 8] [nM]	GI50 [1, 9] [nM]	GI50 [1, 10] [nM]	GI50 [2, 11] [nM]	GI50 [2, 12] [nM]	GI50 [2, 13] [nM]	GI50 [2, 14] [nM]	GI50 [3, 15] [nM]	GI50 [3, 16] [nM]	GI50 [3, 17] [nM]	GI50 [3, 18] [nM]	GI50 [4, 19] [nM]	GI50 [4, 20] [nM]	GI50 [4, 21] [nM]	GI50 [4, 22] [nM]	loss of potency compared to compound (A1) (growth inhibition) [5]	% Fraction absorbed (MDCK-LE monolayers) [%]	% Recovery (MDCK-LE monolayers) [%]	Papp A − B (MDCK-LE monolayers) [×10⁻⁶ cm/s]	other results
C=C1C(=O)N[C@@H](C)C(=O)N(C)[C@@H](C)C(=O)N[C@@H]([C@H](OC(=O)[C@@H](NC(=O)CC)[C@H](O)C(C)C)C(C)C)C(=O)N(C)[C@@H]([C@@H](C)OC)C(=O)O[C@H](CSC)[C@H](NC(C)=O)C(=O)O[C@H](Cc2ccccc2)C(=O)N1C [Compound 2] (Ac-[X5][dPhLac][NMeDha]A[NMeA][X1](Leu(3R-OH,Nα-propionyl))[NMeT](Me); ester 1-C)	9.8	9.8	8	11.6	3.7	3.7	3.17	4.3	> 260	> 260	> 260	> 260	> 260	> 260	> 260	> 260	~15 fold	72.6	72	6.35	EPSA [6]: 104 A^2
C=C1C(=O)N[C@@H](C)C(=O)N(C)[C@@H](C)C(=O)N[C@@H]([C@@H](CSC)OC(=O)[C@@H](NC(=O)CC)[C@H](O)C(C)C)C(=O)N(C)[C@@H]([C@@H](C)OC)C(=O)O[C@H](C(C)C)[C@H](NC(C)=O)C(=O)O[C@H](Cc2ccccc2)C(=O)N1C [Compound 3] (Ac-[X1][dPhLac][NMeDha]A[NMeA][X5](Leu(3R-OH,Nα-propionyl))[NMeT](Me); ester 1-C)	10.4	10.4	9.05	11.7	4	4	3.12	4.89	> 260	> 260	> 260	> 260	> 260	> 260	> 260	> 260	~15 fold	86.1	90	12.2	EPSA [6]: 98 A^2
C=C1C(=O)N[C@@H](C)C(=O)N(C)[C@@H](C)C(=O)N[C@@H]([C@H](OC(=O)[C@@H](NC(=O)CC)[C@H](O)CSC)C(C)C)C(=O)N(C)[C@@H]([C@@H](C)OC)C(=O)O[C@H](C(C)C)[C@H](NC(C)=O)C(=O)O[C@H](Cc2ccccc2)C(=O)N1C [Compound 4] (Ac-[X1][dPhLac][NMeDha]A[NMeA][X1](X4)[NMeT](Me); ester 1-C)	1.2	1.2	0.91	1.5	0.5	0.5	0.45	0.53	> 260	> 260	> 260	> 260	> 260	> 260	> 260	> 260	two-fold	32.5	75	1.71	EPSA [6]: 104 A^2
C=C1C(=O)N[C@@H](C)C(=O)N(C)[C@@H](C)C(=O)N[C@@H]([C@H](OC(=O)[C@@H](NC(=O)CC)[C@H](O)C(C)C)C(C)C)C(=O)N(C)[C@@H]([C@@H](C)OC)C(=O)O[C@H](C(C)C)[C@H](NC(=O)CC)C(=O)O[C@H](Cc2ccccc2)C(=O)N1C [Compound 9] (Propionyl-[X1][dPhLac][NMeDha]A[NMeA][X1](Leu(3R-OH,Nα-propionyl))[NMeT](Me); ester 1-C)	1.4	1.4	1.2	1.69	0.7	0.7	0.6	0.78	> 260	> 260	> 260	> 260	> 260	> 260	> 260	> 260	two to three	–	–	–	–
CCC(=O)N[C@H](C(=O)O[C@H](C(C)C)[C@@H]1NC(=O)[C@H](C)N(C)C(=O)[C@H](C)NC(=O)[C@H](C)N(C)C(=O)[C@@H](Cc2ccccc2)OC(=O)[C@@H](NC(C)=O)[C@@H](C(C)C)OC(=O)[C@H]([C@@H](C)OC)N(C)C1=O)[C@H](O)C(C)C [Compound 10] (Ac-[X1][dPhLac][NMeA]A[NMeA][X1](Leu(3R-OH,Nα-propionyl))[NMeT](Me); ester 1-C)	607	607	760	453	396	396	419	372	> 10000	> 10000	> 10000	> 10000	> 10000	> 10000	> 10000	> 10000	25-30 fold	37.6	77	2.03	–

Source: patent publication US20240252668A1, “ANTIBODY DRUG CONJUGATES AND METHODS FOR MAKING THEREOF” (Novartis AG, priority 2021, published 2024)
